From patent publication US11572590B2, “Methods for evaluating tumor cell spheroids using 3D microfluidic cell culture device” (Dana-Farber Cancer Institute, Inc., priority 2017, dated 2023)
Like-named read-outs stand apart in the source and are kept apart here.

Tests used:
Assay in all cases: SelectScreen Kinase Profiling, single point inhibition and IC50 for off-target kinases
Format in all cases: biochemical
[1] = target: off-target kinases (Homo sapiens, UniProt P10721, D816H); conditions: KIT D816H, LanthaScreen Binding
[2] = target: off-target kinases (Homo sapiens, UniProt Q5S007); conditions: ATP Km app, Adapta
[3] = target: T1, off-target kinases (Homo sapiens, UniProt Q12866, A708S); conditions: MERTK (cMER) A708S, mutant y, LanthaScreen Binding
T1 sequence (Q12866 21-999 A708S): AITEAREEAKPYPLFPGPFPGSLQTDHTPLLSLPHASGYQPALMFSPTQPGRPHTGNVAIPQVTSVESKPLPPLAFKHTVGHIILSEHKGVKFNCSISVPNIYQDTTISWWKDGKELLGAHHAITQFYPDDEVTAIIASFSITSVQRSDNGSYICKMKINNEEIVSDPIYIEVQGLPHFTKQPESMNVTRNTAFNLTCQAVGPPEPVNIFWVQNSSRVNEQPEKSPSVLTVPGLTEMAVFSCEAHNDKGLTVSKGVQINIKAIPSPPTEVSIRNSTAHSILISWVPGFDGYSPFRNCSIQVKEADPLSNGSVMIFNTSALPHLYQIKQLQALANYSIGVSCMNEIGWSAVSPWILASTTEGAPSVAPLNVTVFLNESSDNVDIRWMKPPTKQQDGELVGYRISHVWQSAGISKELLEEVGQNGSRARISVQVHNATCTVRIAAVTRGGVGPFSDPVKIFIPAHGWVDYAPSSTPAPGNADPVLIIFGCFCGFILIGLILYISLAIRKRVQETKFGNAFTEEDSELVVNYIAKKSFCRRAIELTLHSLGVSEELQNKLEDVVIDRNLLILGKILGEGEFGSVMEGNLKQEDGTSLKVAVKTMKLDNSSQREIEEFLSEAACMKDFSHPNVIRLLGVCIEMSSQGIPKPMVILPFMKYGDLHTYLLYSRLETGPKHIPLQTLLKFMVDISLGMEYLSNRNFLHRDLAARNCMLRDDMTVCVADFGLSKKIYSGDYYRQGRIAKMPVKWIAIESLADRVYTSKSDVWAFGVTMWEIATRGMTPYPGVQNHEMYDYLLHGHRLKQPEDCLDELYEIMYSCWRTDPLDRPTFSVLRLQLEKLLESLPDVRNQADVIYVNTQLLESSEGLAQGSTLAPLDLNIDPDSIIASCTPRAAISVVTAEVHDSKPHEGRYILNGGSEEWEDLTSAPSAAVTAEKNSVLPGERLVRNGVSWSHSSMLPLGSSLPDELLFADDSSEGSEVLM

[4] = target: off-target kinases (Homo sapiens, UniProt Q15746); conditions: MYLK (MLCK), LanthaScreen Binding

off-target kinases (Homo sapiens, UniProt P10721, D816H), sequence (P10721 26-976 D816H): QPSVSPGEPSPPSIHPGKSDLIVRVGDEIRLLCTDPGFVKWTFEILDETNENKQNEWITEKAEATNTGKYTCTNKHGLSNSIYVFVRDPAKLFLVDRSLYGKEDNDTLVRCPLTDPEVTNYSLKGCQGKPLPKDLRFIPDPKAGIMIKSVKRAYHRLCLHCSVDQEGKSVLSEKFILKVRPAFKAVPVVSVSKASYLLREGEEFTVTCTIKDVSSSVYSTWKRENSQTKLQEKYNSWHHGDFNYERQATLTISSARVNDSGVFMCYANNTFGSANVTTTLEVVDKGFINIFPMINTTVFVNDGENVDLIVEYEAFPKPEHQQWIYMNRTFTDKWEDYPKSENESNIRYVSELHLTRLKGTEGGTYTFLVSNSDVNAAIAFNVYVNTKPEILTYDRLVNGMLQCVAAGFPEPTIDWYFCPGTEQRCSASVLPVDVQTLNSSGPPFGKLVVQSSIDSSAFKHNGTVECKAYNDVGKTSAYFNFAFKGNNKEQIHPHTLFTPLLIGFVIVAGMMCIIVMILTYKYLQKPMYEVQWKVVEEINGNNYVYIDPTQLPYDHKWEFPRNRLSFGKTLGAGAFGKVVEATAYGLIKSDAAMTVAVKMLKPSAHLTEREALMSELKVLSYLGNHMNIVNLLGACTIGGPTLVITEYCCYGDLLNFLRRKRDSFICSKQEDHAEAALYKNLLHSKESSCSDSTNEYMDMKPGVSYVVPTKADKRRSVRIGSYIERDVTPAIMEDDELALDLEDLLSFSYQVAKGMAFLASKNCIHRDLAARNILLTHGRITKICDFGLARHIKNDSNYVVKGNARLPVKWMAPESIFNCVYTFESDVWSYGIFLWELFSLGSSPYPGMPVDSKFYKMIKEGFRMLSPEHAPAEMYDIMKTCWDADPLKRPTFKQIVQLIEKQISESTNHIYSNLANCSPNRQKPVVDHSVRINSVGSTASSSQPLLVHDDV
off-target kinases (Homo sapiens, UniProt Q5S007), sequence (Q5S007 whole entry): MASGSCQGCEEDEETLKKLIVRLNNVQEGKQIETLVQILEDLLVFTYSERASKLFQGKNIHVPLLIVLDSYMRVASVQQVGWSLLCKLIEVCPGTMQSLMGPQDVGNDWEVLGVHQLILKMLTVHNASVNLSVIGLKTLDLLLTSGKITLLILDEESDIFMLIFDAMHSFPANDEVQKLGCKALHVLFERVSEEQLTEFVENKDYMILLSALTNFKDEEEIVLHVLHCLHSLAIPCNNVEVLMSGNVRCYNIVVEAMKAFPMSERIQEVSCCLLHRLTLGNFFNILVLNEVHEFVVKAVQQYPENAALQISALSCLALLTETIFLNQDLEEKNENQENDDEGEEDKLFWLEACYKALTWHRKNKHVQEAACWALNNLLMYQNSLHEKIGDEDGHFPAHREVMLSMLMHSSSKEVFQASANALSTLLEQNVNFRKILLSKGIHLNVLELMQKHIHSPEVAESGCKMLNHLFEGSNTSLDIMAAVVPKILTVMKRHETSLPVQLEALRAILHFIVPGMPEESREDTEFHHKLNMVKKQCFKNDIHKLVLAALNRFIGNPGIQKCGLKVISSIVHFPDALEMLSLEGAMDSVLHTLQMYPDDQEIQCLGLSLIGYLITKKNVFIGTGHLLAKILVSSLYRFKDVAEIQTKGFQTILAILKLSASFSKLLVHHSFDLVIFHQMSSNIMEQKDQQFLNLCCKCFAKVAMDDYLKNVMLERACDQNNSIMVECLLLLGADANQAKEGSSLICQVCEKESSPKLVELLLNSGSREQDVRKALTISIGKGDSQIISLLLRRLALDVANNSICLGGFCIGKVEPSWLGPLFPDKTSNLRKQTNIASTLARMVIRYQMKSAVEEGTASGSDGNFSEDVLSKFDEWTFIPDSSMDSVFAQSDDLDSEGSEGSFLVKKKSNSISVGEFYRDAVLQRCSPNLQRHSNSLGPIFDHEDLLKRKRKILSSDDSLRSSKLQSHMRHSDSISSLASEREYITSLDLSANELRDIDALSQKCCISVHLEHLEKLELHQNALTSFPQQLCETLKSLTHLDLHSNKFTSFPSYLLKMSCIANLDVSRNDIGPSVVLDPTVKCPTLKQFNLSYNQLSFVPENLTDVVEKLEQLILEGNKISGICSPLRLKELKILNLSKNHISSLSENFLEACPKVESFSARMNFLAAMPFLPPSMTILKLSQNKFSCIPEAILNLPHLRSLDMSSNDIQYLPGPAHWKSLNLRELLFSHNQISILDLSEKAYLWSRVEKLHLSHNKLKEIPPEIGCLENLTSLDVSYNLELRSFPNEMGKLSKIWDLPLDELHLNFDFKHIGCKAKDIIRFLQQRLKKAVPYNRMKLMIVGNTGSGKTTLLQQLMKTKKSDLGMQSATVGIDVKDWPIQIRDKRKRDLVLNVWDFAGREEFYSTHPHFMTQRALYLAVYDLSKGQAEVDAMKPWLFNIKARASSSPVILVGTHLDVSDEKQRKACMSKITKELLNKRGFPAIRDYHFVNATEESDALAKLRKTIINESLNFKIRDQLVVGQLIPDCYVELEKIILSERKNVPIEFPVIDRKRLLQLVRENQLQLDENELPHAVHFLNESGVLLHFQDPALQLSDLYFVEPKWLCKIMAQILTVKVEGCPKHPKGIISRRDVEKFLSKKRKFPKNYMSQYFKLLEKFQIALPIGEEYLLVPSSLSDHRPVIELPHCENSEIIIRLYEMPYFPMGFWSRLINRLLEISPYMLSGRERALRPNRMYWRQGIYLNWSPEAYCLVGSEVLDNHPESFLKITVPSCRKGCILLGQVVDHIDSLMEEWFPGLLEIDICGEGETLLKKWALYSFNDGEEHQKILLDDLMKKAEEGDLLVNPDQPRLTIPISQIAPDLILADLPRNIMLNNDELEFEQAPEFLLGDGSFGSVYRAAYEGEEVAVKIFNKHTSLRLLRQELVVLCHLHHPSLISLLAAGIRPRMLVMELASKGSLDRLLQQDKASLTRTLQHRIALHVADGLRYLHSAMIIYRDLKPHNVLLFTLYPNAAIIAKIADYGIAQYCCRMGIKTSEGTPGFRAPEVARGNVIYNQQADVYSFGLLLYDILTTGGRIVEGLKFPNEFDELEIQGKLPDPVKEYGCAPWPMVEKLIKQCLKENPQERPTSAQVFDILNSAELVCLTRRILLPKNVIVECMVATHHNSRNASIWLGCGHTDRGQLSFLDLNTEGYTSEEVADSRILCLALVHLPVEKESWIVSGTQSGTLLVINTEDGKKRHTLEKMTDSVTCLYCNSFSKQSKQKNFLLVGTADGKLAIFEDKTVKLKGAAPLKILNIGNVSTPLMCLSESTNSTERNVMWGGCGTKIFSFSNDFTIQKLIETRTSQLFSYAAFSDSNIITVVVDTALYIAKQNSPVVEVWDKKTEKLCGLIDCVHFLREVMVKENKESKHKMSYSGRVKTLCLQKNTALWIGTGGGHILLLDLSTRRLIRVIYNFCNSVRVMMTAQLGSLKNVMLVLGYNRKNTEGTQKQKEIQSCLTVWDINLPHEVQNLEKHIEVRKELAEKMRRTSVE

N#Cc1cc(-c2ncnc(Nc3ccc(N4CCN(C5COC5)CC4)cc3)n2)ccc1OC1CCOCC1 [Compound 1, 5-(4-((4-(4-(oxetan-3-yl)piperazin-1-yl)phenyl)amino)-1,3,5-triazin-2-yl)-2-((tetrahydro-2H-pyran-4-yl)oxy)benzonitrile]
inhibition ([1]; read-out: % Inhibition 1): 90%
inhibition ([1]; read-out: % Inhibition 2): 94%
inhibition ([1]; read-out: % Inhibition Avg): 92%
inhibition ([2]; LRRK2, read-out: % Inhibition 1): 99%
inhibition ([2]; LRRK2, read-out: % Inhibition 2): 100%
inhibition ([2]; LRRK2, read-out: % Inhibition Avg): 100%
inhibition ([2]; LRRK2 FL, read-out: % Inhibition 1): 98%
inhibition ([2]; LRRK2 FL, read-out: % Inhibition 2): 98%
inhibition ([2]; LRRK2 FL, read-out: % Inhibition Avg): 98%
inhibition ([3]; read-out: % Inhibition 1): 24%
inhibition ([3]; read-out: % Inhibition 2): 27%
inhibition ([3]; read-out: % Inhibition Avg): 26%
inhibition ([4]; read-out: % Inhibition 1): 5%
inhibition ([4]; read-out: % Inhibition 2): 3%
inhibition ([4]; read-out: % Inhibition Avg): 4%
